Results reported in patent publication US6830761B1, “Composition comprising micro-encapsulated iron” (Ped-Med Ltd., priority 1998, dated 2004).

System: anemic rats
Test: hemoglobin-repletion test in anemic rats (relative bioavailability of iron)
Type: in vivo, Sprague-Dawley rats
Conditions: high iron diet, 20 mg/kg of diet, after 14 days of feeding
Protocol: Male weanling Sprague-Dawley rats housed individually in stainless steel cages were fed a low-iron diet and de-ionized distilled water ad lib for 24 days. The low-iron diet contained no more than about 3 mg of iron per kg of diet. Following the 24 day depletion period, approximately 200 μl of blood was drawn from the tail vein of each rat for hemoglobin analysis. Anemic rats having hemoglobin values between 30 and 60 g/L were used in the study. The rats were housed individually in cages in a randomized block design.

Substance: ferrous sulfate
- mean hemoglobin response: 31 g/L
